Each block holds one molecule with its values, some of them ahead of it.
Columns and labels:
[1] = target: T1, human OCT1 (Homo sapiens, UniProt O15245); assay: Uptake into OCT1-expressing or nonexpressing Xenopus laevis oocytes
T1 sequence (O15245 1-554): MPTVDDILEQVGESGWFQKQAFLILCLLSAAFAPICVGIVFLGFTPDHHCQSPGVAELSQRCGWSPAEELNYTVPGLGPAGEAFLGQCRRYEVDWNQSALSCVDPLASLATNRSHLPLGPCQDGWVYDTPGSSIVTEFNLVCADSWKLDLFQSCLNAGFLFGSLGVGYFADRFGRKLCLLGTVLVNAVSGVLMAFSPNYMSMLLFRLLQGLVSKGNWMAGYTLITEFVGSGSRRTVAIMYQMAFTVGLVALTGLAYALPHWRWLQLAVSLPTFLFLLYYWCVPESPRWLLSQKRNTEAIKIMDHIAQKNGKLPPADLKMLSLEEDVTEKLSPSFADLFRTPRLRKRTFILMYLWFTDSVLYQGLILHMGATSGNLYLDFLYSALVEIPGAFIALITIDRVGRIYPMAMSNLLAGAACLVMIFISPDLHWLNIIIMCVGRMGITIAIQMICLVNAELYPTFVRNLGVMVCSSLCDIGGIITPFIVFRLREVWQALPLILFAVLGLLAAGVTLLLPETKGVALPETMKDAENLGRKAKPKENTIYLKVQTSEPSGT

[2] = target: T1, human OCT1; assay: Uptake into HEK293 cells expressing human OCT1
[3] = test system: HepG2 cells; assay: Uptake into HepG2 liver cancer cells; type: in vitro ADME, human
[4] = test system: Huh7 cells; assay: Uptake into Huh7 liver cancer cells; type: in vitro ADME, human
[5] = test system: HeLa cells; assay: Sorafenib uptake and membrane binding in HeLa cells; type: in vitro ADME; details: for Interference with non-specific membrane binding of sorafenib: isolated membrane fraction
[6] = test system: Oct1; assay: Pharmacokinetics in Oct1-deficient versus wild-type mice; details: for Pharmacokinetic parameters, Oct1-deficient vs wild-type mice: sorafenib single oral dose 10 mg/kg, plasma
[7] = target: T2, mOATP2B1 (Mus musculus, UniProt Q8BXB6); assay: Sorafenib uptake by HEK cells overexpressing mOATP2B1; type: in vitro ADME; details: Figure S4
T2 sequence (Q8BXB6 1-683): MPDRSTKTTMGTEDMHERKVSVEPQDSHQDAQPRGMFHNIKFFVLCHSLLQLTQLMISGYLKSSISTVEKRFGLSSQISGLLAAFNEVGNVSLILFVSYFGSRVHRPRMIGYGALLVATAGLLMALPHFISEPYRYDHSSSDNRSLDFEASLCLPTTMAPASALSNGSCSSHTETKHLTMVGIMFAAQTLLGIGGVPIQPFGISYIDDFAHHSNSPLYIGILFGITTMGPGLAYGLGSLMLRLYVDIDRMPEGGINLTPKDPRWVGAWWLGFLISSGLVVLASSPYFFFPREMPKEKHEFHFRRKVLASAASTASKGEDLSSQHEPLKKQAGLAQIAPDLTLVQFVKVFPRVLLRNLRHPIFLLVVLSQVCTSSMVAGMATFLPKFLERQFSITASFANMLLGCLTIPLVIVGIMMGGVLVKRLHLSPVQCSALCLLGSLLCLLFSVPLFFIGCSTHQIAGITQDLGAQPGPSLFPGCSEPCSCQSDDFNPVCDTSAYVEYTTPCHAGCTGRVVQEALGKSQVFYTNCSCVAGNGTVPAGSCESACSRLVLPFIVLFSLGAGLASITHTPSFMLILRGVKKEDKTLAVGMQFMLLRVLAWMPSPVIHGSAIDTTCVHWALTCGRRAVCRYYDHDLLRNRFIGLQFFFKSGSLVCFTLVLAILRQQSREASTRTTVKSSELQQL

[8] = target: T3, OATP2B1 (Mus musculus, UniProt Q8BXB6); assay: Sorafenib pharmacokinetics in OATP2B1-deficient mice; type: in vivo; details: Figure S4
T3 sequence (Q8BXB6 1-683): T2 sequence (Q8BXB6 1-683)

[9] = target: p38α (MAPK14) (Homo sapiens, UniProt Q16539); details: live HEK293 cells, 60 min; BIRB796 5 nM, sorafenib 5 μM; DMSO 44.3 °C
Chain of p38α (MAPK14) (Q16539 whole entry): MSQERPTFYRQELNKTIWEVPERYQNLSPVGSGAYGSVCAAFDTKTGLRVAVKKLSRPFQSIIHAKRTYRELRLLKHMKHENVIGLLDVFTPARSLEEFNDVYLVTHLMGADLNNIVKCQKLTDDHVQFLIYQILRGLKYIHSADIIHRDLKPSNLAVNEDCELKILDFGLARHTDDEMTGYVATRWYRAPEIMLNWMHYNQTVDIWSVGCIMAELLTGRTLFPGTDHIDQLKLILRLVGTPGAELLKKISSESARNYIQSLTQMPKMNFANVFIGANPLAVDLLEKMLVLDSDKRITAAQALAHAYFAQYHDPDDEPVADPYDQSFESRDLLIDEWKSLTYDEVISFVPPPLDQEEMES

[10] = target: T4, hOATP2B1 (Homo sapiens, UniProt O94956); assay: Sorafenib uptake by HEK cells overexpressing hOATP2B1; type: in vitro ADME; details: Figure S4
T4 sequence (O94956 1-709): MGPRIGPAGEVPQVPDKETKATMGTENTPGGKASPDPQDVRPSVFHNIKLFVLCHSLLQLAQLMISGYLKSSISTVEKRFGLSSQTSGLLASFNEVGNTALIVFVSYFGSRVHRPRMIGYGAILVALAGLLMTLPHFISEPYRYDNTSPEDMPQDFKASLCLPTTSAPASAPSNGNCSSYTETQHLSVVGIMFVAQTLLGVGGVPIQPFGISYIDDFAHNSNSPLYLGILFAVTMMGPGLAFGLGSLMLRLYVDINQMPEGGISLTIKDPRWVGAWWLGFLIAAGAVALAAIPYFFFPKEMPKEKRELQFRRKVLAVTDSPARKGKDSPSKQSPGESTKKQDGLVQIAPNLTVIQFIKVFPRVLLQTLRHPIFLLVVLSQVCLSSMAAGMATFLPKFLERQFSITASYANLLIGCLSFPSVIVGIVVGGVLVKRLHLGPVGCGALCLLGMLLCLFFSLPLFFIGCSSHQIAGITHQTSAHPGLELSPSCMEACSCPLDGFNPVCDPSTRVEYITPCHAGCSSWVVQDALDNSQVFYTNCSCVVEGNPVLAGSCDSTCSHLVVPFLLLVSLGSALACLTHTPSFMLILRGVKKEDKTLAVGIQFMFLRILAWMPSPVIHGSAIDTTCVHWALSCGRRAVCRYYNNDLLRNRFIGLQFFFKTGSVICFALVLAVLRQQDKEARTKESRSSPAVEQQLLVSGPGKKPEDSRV

[11] = test system: OCT1; details: cited from earlier work
[12] = cited from earlier work
[13] = target: T5, human OCT3 (Homo sapiens, UniProt O75751); assay: Sorafenib transport in HEK293 cells overexpressing human OCT3; type: in vitro ADME; details: HEK293 cells overexpressing human OCT3, Figure S1
T5 sequence (O75751 1-556): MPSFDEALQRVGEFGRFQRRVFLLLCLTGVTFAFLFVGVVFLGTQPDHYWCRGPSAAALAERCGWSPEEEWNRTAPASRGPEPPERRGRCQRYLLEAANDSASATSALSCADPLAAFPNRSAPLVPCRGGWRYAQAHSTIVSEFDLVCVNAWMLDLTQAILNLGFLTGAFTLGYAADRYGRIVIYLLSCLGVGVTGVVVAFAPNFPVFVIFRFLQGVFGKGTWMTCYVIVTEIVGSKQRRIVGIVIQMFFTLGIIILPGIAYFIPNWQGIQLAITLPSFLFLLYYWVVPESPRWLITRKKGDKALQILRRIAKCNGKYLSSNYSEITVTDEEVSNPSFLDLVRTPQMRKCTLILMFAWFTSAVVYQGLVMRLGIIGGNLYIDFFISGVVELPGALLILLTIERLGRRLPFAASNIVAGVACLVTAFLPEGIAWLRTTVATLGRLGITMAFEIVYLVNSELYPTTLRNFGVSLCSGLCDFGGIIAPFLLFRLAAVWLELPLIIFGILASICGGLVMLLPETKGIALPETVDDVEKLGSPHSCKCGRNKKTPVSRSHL

[14] = test system: p38α; details: cited from earlier work
[15] = target: human OCT2 (Homo sapiens, UniProt O15244); details: HEK293 cells overexpressing human OCT2, Figure S1
Chain of human OCT2 (O15244 whole entry): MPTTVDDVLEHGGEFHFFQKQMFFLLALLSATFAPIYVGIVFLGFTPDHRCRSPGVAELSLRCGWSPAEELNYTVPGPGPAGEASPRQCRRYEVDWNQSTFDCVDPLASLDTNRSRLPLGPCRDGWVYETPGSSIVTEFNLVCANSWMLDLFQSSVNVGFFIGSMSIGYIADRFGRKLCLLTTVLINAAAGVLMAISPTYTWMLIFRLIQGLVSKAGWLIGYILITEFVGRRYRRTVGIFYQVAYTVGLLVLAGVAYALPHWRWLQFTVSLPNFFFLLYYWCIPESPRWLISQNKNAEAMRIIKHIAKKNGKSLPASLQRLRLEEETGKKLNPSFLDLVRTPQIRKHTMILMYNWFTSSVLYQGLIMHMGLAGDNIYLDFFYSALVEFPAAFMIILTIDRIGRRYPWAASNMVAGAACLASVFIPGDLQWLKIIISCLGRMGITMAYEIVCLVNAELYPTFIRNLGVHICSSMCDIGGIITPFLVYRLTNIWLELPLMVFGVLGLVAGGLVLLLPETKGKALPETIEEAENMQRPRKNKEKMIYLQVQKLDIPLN

Molecule: C[n+]1ccc(-c2ccccc2)cc1 [MPP]
- Increase of MPP uptake, OCT1 present vs absent ([1]; MPP 1 μM, 20 min): 13 fold
- Uptake of MPP into oocytes in the presence of OCT1 ([1]; MPP 1 μM, 20 min, OCT1-expressing oocytes): 2.1 pmol/oocyte/20 min
- Uptake of MPP into oocytes in the absence of OCT1 ([1]; MPP 1 μM, 20 min, nonexpressing oocytes): 0.16 pmol/oocyte/20 min
- Effect of excess MPP on OCT1-mediated MPP uptake ([1]; […] MPP as inhibitor, 1 μM MPP as substrate): completely blocked

Molecule: CC[N+](CC)(CC)CC [TEA]
- Increase of TEA uptake in HEK293-OCT1 vs HEK293-VC cells ([2]; TEA 100 μM, 10 min): 23.5±1.2 fold
- TEA uptake compared to HEK293-OCT1 cells ([3]; HepG2, TEA 100 μM, 10 min): did not take up appreciable levels
- TEA uptake compared to HEK293-OCT1 cells ([4]; Huh7, TEA 100 μM, 10 min): did not take up appreciable levels

- Effect of inhibitor on sorafenib uptake in HEK293-OCT1 and HEK293-VC cells ([2]; decynium22 5 μM, sorafenib 0.2 μM, 10 min): decreased sorafenib uptake
- Effect of inhibitor on TEA uptake in OCT1 transfectants ([2]; probe substrate TEA, OCT1-transfected HEK293 cells): almost completely abolished
Molecule: CCN1/C(=C/c2ccc3ccccc3[n+]2CC)C=Cc2ccccc21.[I-] [decynium22]
- Interference with non-specific membrane binding of sorafenib ([5]; HeLa cells): neither inhibitor interfered

Molecule: CNC(=O)c1cc(Oc2ccc(NC(=O)Nc3ccc(Cl)c(C(F)(F)F)c3)cc2)cc[n+]1[O-] [sorafenib-N-oxide]
- Transport of sorafenib-N-oxide by OCT1 ([2]; 1 μM, HEK293 cells expressing VC or OCT1, time-dependent uptake): not transported by OCT1
- Hepatic levels ([6]; sorafenib 10 mg/kg oral, 7.5 h, data not shown): below the lower limit of quantification
- Pharmacokinetic parameters, Oct1-deficient vs wild-type mice [6]: minimal difference

Molecule: CNC(=O)c1cc(Oc2ccc(NC(=O)Nc3ccc(Cl)c(C(F)(F)F)c3)cc2)ccn1 [sorafenib]
- Sorafenib uptake, HEK-VC vs mOATP2B1-overexpressing HEK cells [7]: did not detect a different sorafenib uptake
- Effect of OATP2B1 deficiency in mice on sorafenib pharmacokinetics [8]: did not detect
- Apparent aggregation temperature of p38α [9]: 54.5 °C
- Sorafenib uptake, HEK293-OCT1 vs HEK293-VC cells ([2]; sorafenib 0.2 μM, 10 min): no difference
- Sorafenib transport at 4 °C compared with 37 °C ([2]; sorafenib 7.5 μM, HEK293 cells, independently of OCT1): reduced
- Time at which sorafenib uptake reaches a plateau ([2]; sorafenib 7.5 μM, both HEK293-OCT1 and HEK293-VC cells): about 10 min
- Characteristics of intracellular accumulation of sorafenib ([3]; HepG2): saturable, increased over time, and was found to be temperature-dependent
- Apparent cellular uptake of sorafenib ([5]; HeLa cells, sorafenib 0.2 μM, 10-min incubation): > 800 pmol/mg protein
- Non-specific binding to cell membranes, share of total cell-associated drug ([5]; confirms earlier observation of ref 25): up to 70%
- Liver concentrations, Oct1-deficient vs wild-type mice ([6]; sorafenib 10 mg/kg oral, 7.5 h): no significant differences
- Pharmacokinetic parameters, Oct1-deficient vs wild-type mice [6]: minimal difference
- Sorafenib uptake, HEK-VC vs hOATP2B1-overexpressing HEK cells [10]: did not detect a different sorafenib uptake
- Inhibition of the transport of known OCT1 substrates [11]: poor inhibitor
- Characteristics of intracellular accumulation of sorafenib ([4]; Huh7): saturable, increased over time, and was found to be temperature-dependent
- Fraction of dose found in urine [12]: About 19%
- Transport of sorafenib by OCT3 [13]: do not transport sorafenib
- IC50 [14]: 38 nM
- Transport of sorafenib by OCT2 [15]: do not transport sorafenib
- Sorafenib uptake, OCT1-expressing vs nonexpressing oocytes ([1]; sorafenib 2 μM, 20 min, absence or presence of MPP […]): not different

Molecule: cyclosporin A
- Interference with non-specific membrane binding of sorafenib ([5]; HeLa cells): neither inhibitor interfered

Reference: article PMC6925656 (Clinical pharmacology and therapeutics, 2019)
